Results reported in patent US20260137698A1, “CYCLIN-DEPENDENT KINASE 7 INHIBITORS” (JOINT STOCK COMPANY «BIOCAD», priority 2022, published 2026).
Like-named read-outs stand apart in the source and are kept apart here.

How the values were obtained:
[1] = General cytotoxicity on primary differentiated HepaRG cells (72 h); type: cell-based; details: human, general toxicity, mean value from several measurements
Procedure, shortened: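 Test compounds spanning 200 μM to 0.2 nM were incubated for 72 hours with primary differentiated HepaRG cells. Cells had been kept one week in supplemented hepatic medium and seeded the night before at 25×10^3 per well, and viability was then measured.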

[2] = molecular target: CDK7/Cyclin H/MNAT1 (Homo sapiens, UniProt P50613); experiment: Inhibition of CDK7/Cyclin H/MNAT1 kinase activity (ADP-Glo); type: biochemical
CDK7/Cyclin H/MNAT1, sequence (P50613 whole entry): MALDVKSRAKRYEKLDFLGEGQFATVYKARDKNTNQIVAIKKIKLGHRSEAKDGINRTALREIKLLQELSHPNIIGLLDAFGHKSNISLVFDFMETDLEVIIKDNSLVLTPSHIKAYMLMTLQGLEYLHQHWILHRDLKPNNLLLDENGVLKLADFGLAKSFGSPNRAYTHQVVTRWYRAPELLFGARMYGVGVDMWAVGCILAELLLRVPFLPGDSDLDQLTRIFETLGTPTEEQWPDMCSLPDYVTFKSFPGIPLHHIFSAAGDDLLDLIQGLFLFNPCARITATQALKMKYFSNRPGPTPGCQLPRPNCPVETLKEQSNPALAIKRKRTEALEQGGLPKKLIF
CDK7/Cyclin H/MNAT1, sequence (P51946 whole entry partner): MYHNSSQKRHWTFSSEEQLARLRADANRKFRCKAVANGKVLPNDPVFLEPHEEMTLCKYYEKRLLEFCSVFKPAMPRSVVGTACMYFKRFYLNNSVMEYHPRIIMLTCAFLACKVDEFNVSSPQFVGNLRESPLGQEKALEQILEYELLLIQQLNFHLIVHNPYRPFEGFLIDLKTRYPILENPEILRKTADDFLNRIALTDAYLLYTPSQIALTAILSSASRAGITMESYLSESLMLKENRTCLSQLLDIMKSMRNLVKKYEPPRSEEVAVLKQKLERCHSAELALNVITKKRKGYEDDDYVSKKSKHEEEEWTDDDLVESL
CDK7/Cyclin H/MNAT1, sequence (P51948 whole entry partner): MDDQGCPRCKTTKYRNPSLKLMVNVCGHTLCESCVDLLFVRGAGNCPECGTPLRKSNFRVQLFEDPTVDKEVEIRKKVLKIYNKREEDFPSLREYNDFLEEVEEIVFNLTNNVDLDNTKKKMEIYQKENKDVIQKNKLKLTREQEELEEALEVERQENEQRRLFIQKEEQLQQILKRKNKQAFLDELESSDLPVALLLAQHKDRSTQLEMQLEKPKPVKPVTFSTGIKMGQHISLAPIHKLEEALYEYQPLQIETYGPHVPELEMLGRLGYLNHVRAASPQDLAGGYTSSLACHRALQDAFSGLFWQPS
Procedure, shortened: (§1)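 ADP-Glo luminescence quantified ATP consumption after a 40-60 minute, 25° C. reaction with ATP plus CDKtide, Histone H1 or PDKtide, following a 10-minute compound–kinase preincubation in DTT-supplemented kinase buffer A. Compounds spanned 11 concentrations from 50 μM in 4-fold dilutions; IC50 fitted to a four-parameter model.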

[3] = molecular target: CDK9/Cyclin K (Homo sapiens, UniProt P50750); experiment: Inhibition of CDK9/Cyclin K kinase activity (ADP-Glo); type: biochemical
CDK9/Cyclin K, sequence (P50750 whole entry): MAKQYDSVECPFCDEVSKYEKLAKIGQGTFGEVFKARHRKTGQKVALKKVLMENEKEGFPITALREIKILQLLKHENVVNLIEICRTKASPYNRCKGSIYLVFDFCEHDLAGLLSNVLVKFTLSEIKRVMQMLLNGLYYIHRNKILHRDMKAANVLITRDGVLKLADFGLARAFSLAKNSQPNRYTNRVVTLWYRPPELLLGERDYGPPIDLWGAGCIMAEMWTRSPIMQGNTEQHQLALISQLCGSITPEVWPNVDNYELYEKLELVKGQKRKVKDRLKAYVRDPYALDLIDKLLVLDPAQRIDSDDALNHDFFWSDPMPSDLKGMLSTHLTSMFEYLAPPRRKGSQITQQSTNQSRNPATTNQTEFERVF
CDK9/Cyclin K, sequence (O75909 whole entry partner): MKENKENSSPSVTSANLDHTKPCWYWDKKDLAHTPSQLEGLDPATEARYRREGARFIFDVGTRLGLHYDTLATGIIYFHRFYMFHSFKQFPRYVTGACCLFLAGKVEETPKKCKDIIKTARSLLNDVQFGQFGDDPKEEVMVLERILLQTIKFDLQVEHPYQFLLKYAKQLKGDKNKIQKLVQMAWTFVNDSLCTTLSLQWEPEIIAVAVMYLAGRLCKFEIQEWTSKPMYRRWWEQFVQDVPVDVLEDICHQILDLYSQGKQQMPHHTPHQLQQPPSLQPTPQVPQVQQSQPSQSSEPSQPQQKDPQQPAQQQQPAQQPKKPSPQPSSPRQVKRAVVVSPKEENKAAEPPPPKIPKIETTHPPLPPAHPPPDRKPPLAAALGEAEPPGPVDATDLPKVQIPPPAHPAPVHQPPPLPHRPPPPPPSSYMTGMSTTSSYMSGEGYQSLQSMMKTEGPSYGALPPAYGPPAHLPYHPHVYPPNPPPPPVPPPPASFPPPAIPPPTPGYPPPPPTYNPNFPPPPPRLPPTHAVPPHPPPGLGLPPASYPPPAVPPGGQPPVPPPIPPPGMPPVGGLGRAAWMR
Procedure, shortened: as §1

[4] = system: MDA-MB-468 (triple negative breast cancer); experiment: Antiproliferative assay on MDA-MB-468 cells (AlamarBlue, 96 h); type: cell-based; details: Homo sapiens, mean value from several measurements
[5] = molecular target: CDK2/Cyclin A (Homo sapiens, UniProt P24941); experiment: Inhibition of CDK2/Cyclin A kinase activity (ADP-Glo); type: biochemical
Procedure, shortened: as §1

[6] = Passive membrane permeability through PAMPA artificial membrane, pH 7.4; type: in vitro ADME; details: pH 7.4, 10 μmol, 20 hours at room temperature, mean of multiple measurements, read-out: PAMPA passive permeability Pe
Method: Passive membrane permeability of the compounds described in the present invention was determined using the PAMPA (parallel artificial membrane permeability assay) model at pH 7.4.
We used a 96-well plate (Corning® BioCoat® Pre-coated PAMPA Plate System, order no. 353015), composed of acceptor and donor parts with cell membrane-modeling PVDF filter pre-impregnated with a lecithin-phospholipid bilayer. The substance (at a concentration of 10 μmol) in a 0.01 M phosphate buffer with pH 7.4 was introduced into a donor well of the plate, and pure buffer was introduced into an acceptor well; afterwards, the both parts were combined and incubated for 20 hours at room temperature so that the compound was redistributed between the two wells and the membrane. Verapamil (USP, USA, order no. 1711202) and propranolol (MCE LLC, USA, cat. no. HY-B0573/CS-2680) were used as control compounds with high and medium permeability. Samples were analyzed by reversed-phase HPLC with UV detection (Agilent 1260 chromatograph with UV detector) by determining their peak areas in the donor and acceptor wells.
Permeability (Pe, cm/s) and retention factor (R, %) in the lipid bilayer were calculated using the formula:
[formula] [formula] • Co is donor-well concentration of the substance at the initial moment of time t (μM); • CA (t) is acceptor-well concentration of the substance at time t (μM); • Vd is donor-well volume (0.3 ml); • Va is acceptor-well volume (0.15 ml).
[formula] • A is filter area (0.3 cm^2); • t is incubation time (72000 s);

[7] = system: NCl-H82 (small cell lung cancer); experiment: Antiproliferative assay on NCl-H82 cells (AlamarBlue, 120 h); type: cell-based; details: mean value from several measurements
Method: The antiproliferative activity of CDK7 inhibitors according to the present invention was evaluated in a cell test using continuous cell cultures: MDA-MB-468 (triple negative breast cancer, ATCC® HTB-132™) and NCl-H82 (small cell lung cancer, ATCC® HTB-175™) using a viable AlamarBlue dye (Thermo Fisher Scientific Inc, order no. DAL1100). The cells were grown in DMEM (PanEco, order no. C330π) and RPMI-1640 (PanEco, order no. C330π), respectively. The basal growth medium was enriched with L-glutamine at a concentration of 2 mM (PanEco, order no. Φ032) and 10% fetal bovine serum (Gibco, order no. 16140-071). The night before measurement, MDA-MB-468 adherent cells were detached from plastic with a solution of trypsin-EDTA (PanEco, order no. Π039π), the solution was then inactivated by a DMEM complete medium, centrifuged at 1000 RPM (Eppendorf, 5804 R), a suspension of cells was prepared in a DMEM complete medium, introduced into 96-well culture plates (Corning Inc, order no. 3599) at 8×10^3 cells in 100 μl of medium per well. The next day, test compounds were dissolved in DMSO and diluted with a DMEM complete medium to a final concentration ranging from 50 μM to 10 pM. Diluted compounds in a volume of 50 μl were introduced into the plate wells with cells in triplicates (the final concentration of DMSO was no more than 1%) and incubated at 37° C. in an incubator with 5% CO2 for 96 hours. NCl-H82 suspension cell line was prepared on the day of the analysis. 10×10^3 cells in 100 μl of an RPMI-1640 complete medium were added to each well of a 96-well plate. The procedure for sample dilution is as described above. Cells with test compounds were incubated at 37° C. in an incubator with 5% CO2 for 120 hours. Following incubation, […] of AlamarBlue reagent (Thermo Fisher Scientific Inc., order no. DAL1100) was added to the wells, the contents of the plates were stirred in an orbital shaker (Biosan, Latvia), then further incubated for 5.5-6 hours at 37° C. in an incubator with 5% CO2. The number of viable cells was detected using the Infinite M200Pro microplate spectrophotometer (Tecan Group Ltd, Switzerland) by way of measuring a fluorescent signal at an excitation wavelength (λEx) of 540 nm and an emission wavelength (λEm) of 590 nm.
IC50 value was calculated using the Magellan software (Tecan Group Ltd, Switzerland) by approximating experimental points by four-parameter model with the optimization by Levenberg-Marquardt: […]

[8] = mean value from several measurements, read-out: IC50 CDK7/Cyclin H/MNAT
[9] = mean value from several measurements, read-out: IC50 CDK9/Cyclin K
[10] = mean value from several measurements, read-out: IC50 CDK2/Cyclin A
[11] = mean of multiple measurement series, ATP 10 μM, read-out: CDK7/Cyclin H/MNAT1 IC50
[12] = mean of multiple measurement series, ATP 50 μM, read-out: CDK9/Cyclin K IC50
[13] = mean of multiple measurement series, ATP 50 μM, read-out: CDK2/Cyclin A IC50

IC50 [2, 8] [nM]	IC50 [3, 9] [nM]	IC50 [4] [nM]	IC50 [5, 10] [nM]	Papp at 20 h, 10 μmol [6] [×10⁻⁶ cm/s]	IC50 [7] [nM]	IC50 [2, 11] [nM]	IC50 [3, 12] [nM]	IC50 [5, 13] [nM]	SMILES	CC50 at 72 h [1] [nM]
5 to 50	5 to 50	10 to 100	> 200	1 to 5	–	–	–	–	Nc1ccccc1Oc1nc(N[C@H]2CCCNC2)ncc1C(F)(F)F [CDK7_548, 4-(2-aminophenoxy)-N-[(3S)-piperidin-3-yl]-5-(trifluoromethyl) pyrimidin-2-amine]	500 to 2000
< 5	5 to 50	100 to 1000	> 200	< 1	–	–	–	–	CP(C)(=O)c1ccccc1Nc1nc(N[C@H]2CCCNC2)ncc1C(F)(F)F [CDK7_735, N4-[2-(dimethylphos-phoryl)phenyl]-N2-[(3S)-piperidin-3-yl]-5-(trifluoromethyl) pyrimidine-2,4-diamine]	> 2000
5 to 50	5 to 50	100 to 1000	> 200	< 1	–	–	–	–	Cn1cc(NC(=O)c2cc(-c3nc(N[C@H]4CCCNC4)ncc3C(F)(F)F)c[nH]2)cn1 [CDK7_835, N-(1-methyl-1H-pyrazol-4-yl)-4-(2-{[(3S)-piperidin-3-yl]amino}-5-(trifluoromethyl)pyrimidin-4-yl)-1H-pyrrole-2-carboxamide]	> 2000
5 to 50	50 to 200	100 to 1000	> 200	–	100 to 1000	–	–	–	O=C(Nc1ccc(N2CCOCC2)cc1)c1cc(-c2nc(N[C@H]3CCCNC3)ncc2C(F)(F)F)c[nH]1 [CDK7_838, N-[4-(morpholin-4-yl)phenyl]-4-(2-{[(3S)-piperidin-3-yl]amino}-5-(trifluoromethyl)pyrimidin-4-yl)-1H-pyrrole-2-carboxamide]	500 to 2000
< 5	5 to 50	100 to 1000	> 200	< 1	–	–	–	–	Cc1ccc(Nc2nc(N[C@H]3CCCNC3)ncc2C(F)(F)F)c(P(C)(C)=O)c1 [CDK7_904, N4-[2-(dimethylphos-phoryl)-4-methylphenyl]-N2-[(3S)-piperidin-3-yl]-5-(trifluoromethyl) pyrimidine-2,4-diamine]	> 2000
< 5	5 to 50	< 10	> 200	< 1	–	–	–	–	CN1Cc2c(-c3nc(N[C@H]4CCCNC4)ncc3C(F)(F)F)c[nH]c2C1=O [CDK7_944, 5-methyl-3-(2-{[(3S)-piperidin-3-yl]amino}-5-(trifluoromethyl)pyrimidin-4-yl)-1H,4H,5H,6H-pyrrolo[2,3-c]pyrrol-6-one]	< 100
< 5	5 to 50	10 to 100	> 200	< 1	–	–	–	–	O=C(NC1CC1)c1cc(-c2nc(N[C@H]3CCCNC3)ncc2C(F)(F)F)c[nH]1 [CDK7_951, N-cyclopropyl-4-(2-{[(3S)-piperidin-3-yl]amino}-5-(trifluoromethyl)pyrimidin-4-yl)-1H-pyrrole-2-carboxamide]	500 to 2000
< 5	5 to 50	10 to 100	> 200	–	10 to 100	–	–	–	CCOC(=O)c1cc(-c2nc(N[C@H]3CCCNC3)ncc2C(F)(F)F)c[nH]1 [CDK7_1020, ethyl 4-(2-{[(3S)-piperidin-3-yl]amino}-5-(trifluoromethyl)py-rimidin-4-yl)-1H-pyrrole-2-carboxylate]	> 2000
< 5	> 200	100 to 1000	> 200	–	100 to 1000	< 5	479	12400	Cn1cc(-n2ccc3c(-c4nc(N[C@H]5CCCNC5)ncc4C(F)(F)F)c[nH]c3c2=O)ccc1=O [CDK7_1052, 1-methyl-5-[7-oxo-3-(2-{[(3S)-piperidin-3-yl]amino}-5-(trifluoromethyl)py-rimidin-4-yl)-1H,6H,7H-pyrrolo[2,3-c]pyridin-6-yl]-1,2-dihydropyridin-2-one]	> 2000
< 5	5 to 50	10 to 100	> 200	–	10 to 100	–	–	–	FC(F)(F)c1cnc(N[C@H]2CCCNC2)nc1-c1c[nH]c(-c2ncccn2)c1 [CDK7_1062, N-[(3S)-piperidin-3-yl]-4-[5-(pyrimidin-2-yl)-1H-pyrrol-3-yl]-5-(trifluoromethyl)py-rimidin-2-amine]	100 to 500
< 5	> 200	< 10	> 200	–	< 10	< 5	843	3390	Cn1cc(-n2ccc3c(-c4nc(N[C@H]5CCC6(CC6)NC5)ncc4C(F)(F)F)c[nH]c3c2=O)cn1 [CDK7_1199, 3-(2-{[(6S)-4-azaspiro[2.5]octan-6-yl]amino}-5-(trifluoromethyl)py-rimidin-4-yl)-6-(1-methyl-1H-pyrazol-4-yl)-1H,6H,7H-pyrrolo[2,3-c]pyridin-7-one]	–
< 5	50 to 200	10 to 100	> 200	–	10 to 100	–	–	–	Cc1nnc2n1CCCc1c(-c3nc(N[C@H]4CCCNC4)ncc3C(F)(F)F)c[nH]c1-2 [CDK7_1236, 4-{5-methyl-3,4,6,13-tetraazatricyclo[8.3.0.0^2,^6]trideca-1(10),2,4,11-tetraen-11-yl}-N-[(3S)-piperidin-3-yl]-5-(trifluoromethyl)py-rimidin-2-amine]	> 2000
–	> 200	10 to 100	> 200	–	10 to 100	–	–	–	COCCN1CCCc2c(-c3nc(N[C@H]4CCC(C)(C)NC4)ncc3C(F)(F)F)c[nH]c2C1=O [CDK7_1268, 3-(2-{[(3S)-6,6-dimethylpiperidin-3-yl]amino}-5-(trifluoromethyl)py-rimidin-4-yl)-7-(2-methoxyethyl)-1H,4H,5H,6H,7H, 8H-pyrrolo[2,3-c]azepin-8-one]	> 2000
